# Test results from patent publication US8765814B2, “N-hydroxyformamide derivative and medicament containing same” (Kaken Pharmaceutical Co., Ltd., priority 2010, dated 2014).
# What was measured:
# [1] = molecular target: T1, ADAM17 (Homo sapiens, UniProt P78536); experiment: ADAM17 inhibition test; assay type: biochemical; settings: recombinant ADAM17 (cDNA from THP-1 cells), fluorescent synthetic substrate Nma-[…]Dnp-D-Arg-NH2, 37° C., 1.5 hours; read-out: IC50 Value (50% inhibitory concentration against ADAM17)
# T1 construct: made in house; host or cells: mammal cells or insect cells (not specified which)
# T1 sequence (P78536 215-824): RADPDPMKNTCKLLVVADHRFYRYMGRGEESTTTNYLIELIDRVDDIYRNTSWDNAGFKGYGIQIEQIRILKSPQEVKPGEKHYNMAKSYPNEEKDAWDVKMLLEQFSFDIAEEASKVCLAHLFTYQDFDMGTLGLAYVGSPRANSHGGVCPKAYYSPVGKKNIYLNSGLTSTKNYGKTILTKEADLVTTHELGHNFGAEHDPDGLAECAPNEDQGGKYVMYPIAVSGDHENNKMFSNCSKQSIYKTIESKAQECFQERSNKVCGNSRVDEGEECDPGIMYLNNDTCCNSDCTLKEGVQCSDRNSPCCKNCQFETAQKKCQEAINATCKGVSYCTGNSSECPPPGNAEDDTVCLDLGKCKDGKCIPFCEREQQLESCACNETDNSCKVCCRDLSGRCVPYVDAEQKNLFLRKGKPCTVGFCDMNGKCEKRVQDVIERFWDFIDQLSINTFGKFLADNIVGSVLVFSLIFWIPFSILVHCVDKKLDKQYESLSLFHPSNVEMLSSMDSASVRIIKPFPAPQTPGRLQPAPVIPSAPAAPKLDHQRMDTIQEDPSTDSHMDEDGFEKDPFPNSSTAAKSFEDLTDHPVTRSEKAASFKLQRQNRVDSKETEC
# Text: The nucleotide sequence of ADAM17 was reported by Moss et al. (Moss, M. L. et al., Nature 1997, 385, 733-736). Accordingly, the cDNA was obtained from THP-1 cells of a human monocytic cell line in the usual way, and this was inserted into an expression vector, and thereafter the vector was transformed in mammal cells or insect cells to thereby make the cells express ADAM17.
# In the ADAM17 inhibition test, ADAM17 obtained in the manner as above was used as an enzyme, and a fluorescent synthetic substrate Nma (N-methylanthranylic acid)-[…]Dnp (dinitrophenyl)-D-Arg-NH2 containing the ADAM17-cleaved sequence of a membrane-bound TNF was used as the substrate. Using these in the test, the ADAM17 activity in the presence or absence of the test substance was measured. The method of ADAM17 inhibition test is mentioned below.
# (§1) Concretely, 90 μl of an enzyme liquid as prepared to have 14 units in an assay buffer A (50 mM tris-hydrochloride buffer (pH 7.5) containing 200 mM sodium chloride, 5 mM calcium chloride, 10 μM zinc sulfate, 0.004% sodium azide, and 2 mg/mL bovine serum albumin) (the amount of enzyme capable of decomposing 1 pmol of substrate at 25° C. for 1 minute was defined to be 1 unit), and 90 μL a fluorescent synthetic substrate as prepared to be 20 μM in an assay buffer B (50 mM tris-hydrochloride buffer (pH 7.5) containing 200 mM sodium chloride, 5 mM calcium chloride, 10 μM zinc sulfate, 0.004% sodium azide, and 0.05% PLURONIC F-68) were mixed, and reacted at 37° C. for 1.5 hours. Subsequently, using a fluorescent intensity meter (Fluoroskan Ascent), the reaction liquid was analyzed at an excitation wavelength of 355 nm and at a measuring wavelength of 460 nm to determine the enzymatic activity therein.
# (§2) From the enzymatic activity in the presence or absence of the test compound, the inhibitory percentage was determined, and the 50% inhibitory concentration (IC50) of the test compound was calculated.
# The 50% inhibitory concentration against ADAM17 of the N-hydroxyformamide derivative of the invention, as determined in this test, was shown in Table 1.
# [2] = molecular target: T2, ADAM10 (Homo sapiens, UniProt O14672); experiment: ADAM10 inhibition test; assay type: biochemical; settings: recombinant ADAM10 (cDNA from THP-1 cells), fluorescent synthetic substrate Nma-[…]Dnp-D-Arg-NH2, 25° C., 5 hours; read-out: IC50 Value (50% inhibitory concentration against ADAM10)
# T2 construct: made in house; host or cells: mammal cells or insect cells (not specified which)
# T2 sequence (O14672 214-748): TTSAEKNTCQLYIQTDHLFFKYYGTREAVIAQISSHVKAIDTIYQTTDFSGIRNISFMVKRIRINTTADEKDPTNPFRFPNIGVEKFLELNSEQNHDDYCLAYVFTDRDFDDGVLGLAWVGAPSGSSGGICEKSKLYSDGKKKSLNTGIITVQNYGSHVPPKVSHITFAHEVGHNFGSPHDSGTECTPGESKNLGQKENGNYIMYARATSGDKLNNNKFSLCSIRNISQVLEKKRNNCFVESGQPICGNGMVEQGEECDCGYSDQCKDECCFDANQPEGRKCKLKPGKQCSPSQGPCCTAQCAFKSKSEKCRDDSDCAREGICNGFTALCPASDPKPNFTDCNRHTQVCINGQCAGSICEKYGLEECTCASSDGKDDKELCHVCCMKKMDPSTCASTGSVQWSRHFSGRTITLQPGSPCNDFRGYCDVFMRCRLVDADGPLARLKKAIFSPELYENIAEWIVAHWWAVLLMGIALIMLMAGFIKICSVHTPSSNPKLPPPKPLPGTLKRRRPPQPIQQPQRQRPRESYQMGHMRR
# Text: The cDNA of ADAM10 was obtained from THP-1 cells in the usual way, and this was inserted into an expression vector, and thereafter the vector was transformed in mammal cells or insect cells to thereby make the cells express ADAM10. In the ADAM10 inhibition test, ADAM10 obtained in the manner as above was used as an enzyme, and a fluorescent synthetic substrate Nma (N-methylanthranylic acid)-[…]Dnp (dinitrophenyl)-D-Arg-NH2 was used as the substrate. Using these in the test, the ADAM10 activity in the presence or absence of the test substance was measured. The method of ADAM10 inhibition test is mentioned below.
# as §1, with “liquid” for “liquid as”, “using” for “to have 14 units in”, “albumin),” for “albumin) (the amount of enzyme capable of decomposing 1 pmol of substrate at 25° C. for 1 minute was defined to be 1 unit),”, “25°” for “37°”, “5” for “1.5”
# as §2
# The 50% inhibitory concentration against ADAM10 of the N-hydroxyformamide derivative of the invention, as determined in this test, was shown in Table 2.
IC50 [1] [nM],IC50 [2] [nM],SMILES
5.2,13,"CC#CCOc1ccc(S(=O)(=O)CC(c2ccc(CN(CC)CC)cc2)N(O)C=O)cc1 (centres unmarked) [Compound I-1, N-[2-(4-But-2-ynyloxybenzenesulfonyl)-1-(4-diethylaminomethylphenyl)ethyl]-N-hydroxyformamide]"
7.2,22,"CC#CCOc1ccc(S(=O)(=O)CC(c2ccc(CN(C)C)cc2)N(O)C=O)cc1 (centres unmarked) [Compound I-2, N-[2-(4-But-2-ynyloxybenzenesulfonyl)-1-(4-dimethylaminomethylphenyl)ethyl]-N-hydroxyformamide]"
8.2,42,"CC#CCOc1ccc(S(=O)(=O)CC(c2ccc(CNC(=O)COC)cc2)N(O)C=O)cc1 (centres unmarked) [Compound I-3, N-{4-[2-(4-But-2-ynyloxybenzenesulfonyl)-1-(formylhydroxyamino)ethyl]benzyl}-2-methoxyacetamide]"
5.8,40,"CC#CCOc1ccc(S(=O)(=O)CC(c2ccc(CNS(C)(=O)=O)cc2)N(O)C=O)cc1 (centres unmarked) [Compound I-4, N-{4-[2-(4-But-2-ynyloxybenzenesulfonyl)-1-(formylhydroxyamino)ethyl]benzyl}methanesulfonamide]"
7.2,19,"CC#CCOc1ccc(S(=O)(=O)CC(c2ccc(CNC(=O)c3ccccc3)cc2)N(O)C=O)cc1 (centres unmarked) [Compound I-5, N-{4-[2-(4-But-2-ynyloxybenzenesulfonyl)-1-(formylhydroxyamino)ethyl]benzyl}benzamide]"
18,70,"CC#CCOc1ccc(S(=O)(=O)CC(c2ccc(CN3CCOCC3)cc2)N(O)C=O)cc1 (centres unmarked) [Compound I-6, N-[2-(4-But-2-ynyloxybenzenesulfonyl)-1-(4-morpholin-4-ylmethylphenyl)ethyl]-N-hydroxyformamide]"
55,90,"CCC#CCOc1ccc(S(=O)(=O)CC(c2ccc(CN3CCOCC3)cc2)N(O)C=O)cc1 (centres unmarked) [Compound I-7, N-Hydroxy-N-[1-(4-morpholin-4-ylmethylphenyl)-2-(4-pent-2-ynyloxybenzenesulfonyl)ethyl]formamide]"
